Laboratory results published in patent US12390458B2, “Therapeutic combination of quinoline derivative and antibody” (CHIA TAI TIANQING PHARMACEUTICAL GROUP CO., LTD., priority 2018, dated 2025).
Counter-ions that a name gives are not always drawn.

Key:
[1] = Open, multicenter phase Ib/II clinical study, first-line 14C12H1L1 plus anlotinib hydrochloride: adverse events; type: in vivo, human; details: patients on combined 14C12H1L1 + anlotinib, events related to the labelled treatment; for TRAE (incidence of treatment-related adverse events) / ≥ grade 3 TRAEs: by Jun. 27, 2019
Description: This example discloses the results of an early open, multicenter phase Ib/II clinical study on first-line treatment of unresectable hepatocellular carcinoma with combined use of 14C12H1L1 and anlotinib hydrochloride.
This study is an open, multicenter phase Ib/II clinical study aimed at evaluating the effectiveness, i.e. safety, of 14C12H1L1 in combination with anlotinib in the first line treatment of unresectable hepatocellular carcinoma.
Secondary endpoints: (1) disease control rate (DCR), duration of response (DOR), time to response (TTR), progression-free survival (PFS), and treatment past progression (TPP) being evaluated by investigators according to RECISIT v1.1; (2) overall survival (OS); (3) safety evaluation: incidence and severity of AEs, clinically significant abnormal laboratory test results.
14C12H1L1 injection, 100 mg/10 mL solution; manufacturer: Akeso Tiancheng Guangdong Co., Ltd.; stored at 2-8° C. in the absence of light.
Anlotinib hydrochloride capsules (FOCUS V®), 8 mg/capsule; manufacturer: Chia Tai Tianging Pharmaceutical Group Co., Ltd.; sealed and be away from light.
14C12H1L1 in combination with anlotinib, wherein the 14C12H1L1: 200 mg, Q3W intravenous injection; anlotinib: taken once a day, 8 mg each time, 14 days of treatment plus 7 days of interruption, i.e., a treatment cycle of 21 days.

[2] = tested on: mouse liver cancer H22 subcutaneous xenograft tumor; assay: Efficacy on mouse liver cancer H22 subcutaneous xenograft tumor; type: in vivo; details: for Mean tumor volume (mm^3) D0: D0, day of first administration (baseline), KM mice, 10 per group; for % T/C D17 / Tumor growth inhibition (%): anlotinib hydrochloride 1 mg/kg i.g. QD×17, lenvatinib mesylate 5 mg/kg i.g. QD×17, mPD-1 1 mg/kg IP 5 times; for % T/C D17 / Tumor growth inhibition (%) / Mean tumor volume (mm^3) D17: D17; for Mean tumor volume (mm^3) D17: anlotinib hydrochloride 1 mg/kg i.g. QD×17, lenvatinib mesylate 5 mg/kg i.g. QD×17, mPD-1 1 mg/kg IP D0, D3, D7, D10, D14; for Complete regression / Partial regression: number of animals out of 10 per group
Method: The H22 cells were cultured in a 10-cm petri dish with RPMI 1640 medium containing 10% fetal bovine serum, penicillin and streptomycin in an incubator at 37° C. and 5% CO2. Subculturing was carried out twice a week and cells were collected, counted and inoculated when the cells grew exponentially.
KM mice, 6-7 weeks old, female, purchased from Shanghai JSJ Laboratory Animal Co. Ltd. Production license No.: SCXK (Shanghai) 2013-0006; animal certification No.: 311620400013790. Breeding environment: SPF grade.
The experimental index is to study the influence of the drug on the tumor growth, and the specific index is T/C (%) or tumor growth inhibition TGI (%).
Tumor diameters were measured twice weekly with a vernier caliper and tumor volume (V) was calculated according to the following formula: V=½×a×b^2, where a and b represent length and width, respectively.
T/C (%)=(T−T0)/(C−C0)×100, where T and C are the tumor volumes of animals at the end of the experiment in the test group and control group, respectively; T0 and C0 are the tumor volumes of animals at the beginning of the experiment in the test group and control group, respectively. Tumor growth inhibition (TGI)(%)=100−T/C(%). Tumor growth inhibition (TGI)(%)=100−(T−T0)/T0×100 when tumor started to regress.
If the volume of tumor shrinks compared with its initial volume, i.e., T<T0 […], it is defined as partial regression (PR) of tumor; if the tumor completely disappears, it is defined as complete regression (CR) of tumor.
(§1) H22 cells were inoculated to each mouse subcutaneously, and when the tumor grew to 100-200 mm^3, the mice were randomly grouped and intragastrically (i.g.) administered or intraperitoneal (IP) injected with drug; the mice in the solvent group were intragastrically administrated with distilled water with the same volume; the administration volume was 0.1 mL/10 g body weight; specific administration dosages and regimes are shown in Table 4.
After the experiment was completed, or when the tumor volume of the animals reached the euthanization endpoint of 1500 mm^3, the animals were put to death through carbon dioxide inhalation, followed by dissecting to take the tumor tissue and weighing and photographing.

[3] = Body weight and tolerance of H22 tumor-bearing mice; type: in vivo
Method: The use and welfare of the laboratory animals were carried out in compliance with the provisions of Association for Assessment and Accreditation of Laboratory Animal Care, International (AAALAC). The health and death of the animals are monitored daily and routine examinations include observation of the effects of the test substance or drug on the daily performance of the animals, such as behavioral activities, weight changes, appearance, etc.
as §1

[4] = phase II trial; cited from earlier work
advanced NSCLC = details: phase III; Chinese patients; cited from earlier work

For “14C12H1L1: anti-PD-1 monoclonal antibody (Akeso Bioscience); CN106977602A; CDRs SEQ ID NO: 25-30”, the “TRAE (incidence of treatment-related adverse events)” value [1] was 62.5%, the “≥ grade 3 TRAEs” value [1] was 6.25% and the SAE [1] was 6.25%. The “TRAEs resulting in the withdrawal” value [1] was 6.25%.

In the case of `COc1cc2c(Oc3ccc4[nH]c(C)cc4c3F)ccnc2cc1OCC1(N)CC1` [Anlotinib hydrochloride, 1-[[[4-(4-fluoro-2-methyl-1H-indol-5-yl)oxy-6-methoxyquinolin-7-yl]oxy]methyl]cyclopropylamine hydrochloride], the “Mean tumor volume (mm^3) D0” value [2] is reported as 131.4 mm^3, the “% T/C D17” value [2] is reported as 38.3% and the “Tumor growth inhibition (%)” value [2] is reported as 61.7%. For the same compound, the “Mean tumor volume (mm^3) D17” value [2] was 975.3 mm^3, the Complete regression ([2]; same doses) was 0 and the Partial regression ([2]; same doses) was 0. The “body weight / tolerance of tumor-bearing mice” value ([3]; D0-D17, anlotinib hydrochloride 1 mg/kg, lenvatinib mesylate 5 mg/kg, mPD-1 1 mg/kg) was “no symptom like obvious weight loss”.

For `COc1cc2c(Oc3ccc4[nH]c(C)cc4c3F)ccnc2cc1OCC1(N)CC1` [Anlotinib, 1-[[[4-(4-fluoro-2-methyl-1H-indol-5-yl)oxy-6-methoxyquinolin-7-yl]oxy]methyl]cyclopropylamine], the overall survival [4] is listed as “potential benefit for overall survival”, the progression-free survival [4] is listed as “improve progression-free survival” and the “overall survival and progression-free survival” value (advanced NSCLC) is listed as “extended overall survival and progression-free survival”. The tolerability (advanced NSCLC) was “well tolerated”, the “TRAE (incidence of treatment-related adverse events)” value [1] was 75% and the “≥ grade 3 TRAEs” value [1] was 12.5%. The SAE [1] was 12.5% and the “TRAEs resulting in the withdrawal” value [1] was 12.5%.

In the case of `COc1cc2nccc(Oc3ccc(NC(=O)NC4CC4)c(Cl)c3)c2cc1C(N)=O` [Lenvatinib mesylate], the “Mean tumor volume (mm^3) D0” value [2] is reported as 127.6 mm^3, the “tumor growth / efficacy in words” value ([2]; D0-D17, same doses, comparison between groups) is reported as “obviously inhibits the growth” and the “% T/C D17” value [2] is reported as 21.0%. The “Tumor growth inhibition (%)” value [2] was 79%, the “Mean tumor volume (mm^3) D17” value [2] was 590.8 mm^3 and the Complete regression ([2]; same doses) was 0. The Partial regression ([2]; same doses) was 0 and the “body weight / tolerance of tumor-bearing mice” value ([3]; mouse, in vivo) was “no symptom like obvious weight loss”.
